Structures can show the parent of a compound that is named as a salt.
Legend:
[1] = tested on: spontaneous hypertensive rats (SHR); assay: Hypotensive activity in spontaneous hypertensive rats (oral); assay type: in vivo; settings: Rattus norvegicus, relative to blood pressure before medication, read-out: Hypotensive effect (average % drop in blood pressure); for inhibition in vivo at 1 mg/kg: 1 mg/kg p.o.; for inhibition in vivo at 3 mg/kg: 3 mg/kg p.o.; for inhibition in vivo at 10 mg/kg: 10 mg/kg p.o.
Description: The hypotensive activities of the compounds of this invention were tested as follows: The test animals used were spontaneous hypertensive rats (SHR) of 5 to 7 month old weighing 300 to 370 g. The blood pressure and the heart rate were measured bloodily under no anesthesia by means of a catheter which has been inserted through the tail's artery under ether anesthesia, thereby determining the average blood pressure and heart rate before medication. […] The hypotensive effect was expressed as percent drop relative to the blood pressure before medication.

[2] = Acute toxicity (LD50) in mice; settings: mouse, in vivo, iv, Litchfield-Wilcoxon method
Description: The values for acute toxicity (LD50) were calculated by the Litchfield-Wilcoxon method from the data obtained on mice.

| SMILES | inhibition in vivo at 1 mg/kg [1] [%] | inhibition in vivo at 3 mg/kg [1] [%] | inhibition in vivo at 10 mg/kg [1] [%] | LD50 [2] [mg/kg] |
| --- | --- | --- | --- | --- |
| O=C(CCCN1CCN(c2ccccc2)CC1)c1ccc2c(c1)OCCCO2 [Compound 59] | 9.8 | 34.4 | 40.5 | – |
| COc1ccccc1N1CCN(CCCC(O)c2ccc3c(c2)OCCCO3)CC1 (centres unmarked) [Compound 34, 7-[4-[4-(2-methoxyphenyl)-1-piperazinyl]-1-hydroxybutyl]-1,5-benzodioxepine] | 24.5 | 40.4 | 48 | – |
| COc1ccccc1N1CCN(CCCCC(=O)c2ccc3c(c2)OCCO3)CC1 [Compound 76, 6-[5-[4-(2-methoxyphenyl)-1-piperazinyl]varleryl]-1,4-benzodioxane] | 8.6 | 23.7 | 56.7 | – |
| O=C(CCCCN1CCN(c2ccccc2)CC1)c1ccc2c(c1)OCCO2 [Compound 65, 6-[5-(4-phenyl-1-piperwzinyl)valeryl]-1,4-benzodioxane] | 21.7 | – | – | – |
| COc1ccccc1N1CCN(CCCC(=O)c2ccc3c(c2)OCCO3)CC1 [Compound 74, 6-[4-[4-(2-methoxyphenyl)-1-piperazinyl]butyryl]-1,4-benzodioxane] | 29.9 | – | – | – |
| COc1ccccc1N1CCN(CCCCC(O)c2ccc3c(c2)OCCCO3)CC1 (centres unmarked) [Compound 37] | 15.6 | 30.4 | 45.7 | – |
| O=C(CCN1CCN(c2ccccc2)CC1)c1ccc2c(c1)OCCCO2 [Compound 56] | 6.2 | 17 | 31.5 | – |
| O=C(CCCN1CCN(c2ccccc2)CC1)c1ccc2c(c1)OCCO2 [Compound 58, 6-[4-(4-phenyl-1-piperazinyl)butyryl]-1,4-benzodioxane] | 12.7 | 51.6 | 62.7 | – |
| O=C(CCCCN1CCN(c2ccccn2)CC1)c1ccc2c(c1)OCCCO2 [Compound 78, 7-[5-[4-(2-pyridyl)-1-piperazinyl]valeryl]-1,5-benzodioxepine] | 13.7 | 24.9 | 27.8 | – |
| OC(CCCN1CCN(c2ccccc2)CC1)c1ccc2c(c1)OCO2 (centres unmarked) [Compound 19, 5-[4-(4-phenyl-1-piperazinyl)-1-hydroxybutyl]-1,3-benzodioxole dihydrochloride] | 12.8 | 45.9 | 56.6 | – |
| O=C(CCCCN1CCN(c2ccccc2)CC1)c1ccc2c(c1)OCCCO2 [Compound 68, 7-[5-(4-phenyl-1-piperazinyl)valeryl]-1,5-benzodioxepine] | 12.5 | 28.6 | 44 | – |
| COc1ccccc1N1CCN(CCN(C(C)=O)c2ccc3c(c2)OCO3)CC1 [Compound 81, N-[2-[4-(2-methoxyphenyl)-1-piperazinyl]ethyl]-N-acetyl-3,4-methylenedioxyaniline hydrochloride] | 15.5 | 21.2 | – | – |
| OC(CCCCN1CCN(c2ccccc2)CC1)c1ccc2c(c1)OCO2 (centres unmarked) [Compound 26, 5-[5-(4-phenyl-1-piperazinyl)-1-hydroxypentyl]-1,3-benzodioxole] | 13 | 21.9 | 52.6 | – |
| OC(CCCCN1CCN(c2ccccc2)CC1)c1ccc2c(c1)OCCCO2 (centres unmarked) [Compound 29, 7-[5-(4-phenyl-1-piperazinyl)-1-hydroxypentyl]-1,5-benzodioxepine] | 10.8 | 27.5 | 50.7 | – |
| OC(CCCN1CCN(c2ccccn2)CC1)c1ccc2c(c1)OCCCO2 (centres unmarked) [Compound 25] | 30.3 | 35.8 | 43.9 | 68.5 |
| O=C(CCCN1CCN(c2ccccn2)CC1)c1ccc2c(c1)OCO2 [Compound 71, 5-[4-[4-(2-pyridyl)-1-piperazinyl]butyryl]-1,3-benzodioxole] | 11.5 | 20.9 | 43.1 | – |

| SMILES | inhibition in vivo at 1 mg/kg [1] [%] | inhibition in vivo at 3 mg/kg [1] [%] | inhibition in vivo at 10 mg/kg [1] [%] | LD50 [2] [mg/kg] |
| --- | --- | --- | --- | --- |
| OC(CCCN1CCN(c2ccccn2)CC1)c1ccc2c(c1)OCO2 (centres unmarked) [Compound 31, 5-[4-[4-(2-pyridyl)-1-piperazinyl]-1-hydroxybutyl]-1,3-benzodioxole] | 11.5 | 33.6 | 45.7 | – |
| COc1ccccc1N1CCN(CCCCC(=O)c2ccc3c(c2)OCCCO3)CC1 [Compound 69] | 23.8 | – | – | – |
| OC(CCCN1CCN(c2ccccc2)CC1)c1ccc2c(c1)OCCO2 (centres unmarked) [Compound 20, 6-[4-(4-phenyl-1-piperazinyl)-1-hydroxybutyl]-1,4-benzodioxane] | 13.7 | 38.4 | 56.1 | – |
| OC(CCCN1CCN(c2ccccc2)CC1)c1ccc2c(c1)OCCCO2 (centres unmarked) [Compound 21] | 19.8 | 30.9 | 43.4 | 184 |
| OC(CN1CCN(c2ccccc2)CC1)c1ccc2c(c1)OCCCO2 (centres unmarked) [Compound 8, 7-[2-(4-phenyl-1-piperazinyl)-1-hydroxyethyl]-1,5-benzodioxepine] | 8.6 | 14.1 | 25 | – |
| COc1ccccc1N1CCN(CC(O)c2ccc3c(c2)OCO3)CC1 (centres unmarked) [Compound 2, 5-[2-[4-(2-methoxyphenyl)-1-piperazinyl]-1-hydroxyethyl]-1,3-benzodioxole] | 10.2 | 19.2 | 36.5 | – |
| O=C(CCCN1CCN(c2ccccn2)CC1)c1ccc2c(c1)OCCO2 [Compound 72, 6-[4-[4-(2-pyridyl)-1-piperazinyl]butyryl]-1,4-benzodioxane] | 10.1 | 25.3 | 46.4 | – |
| COc1ccccc1N1CCN(CCCCC(=O)c2ccc3c(c2)OCO3)CC1 [Compound 77, 5-[5-[4-(2-methoxyphenyl)-1-piperazinyl]valeryl]-1,3-benzodioxole] | 12.9 | 21.5 | 34.5 | – |
| O=C(CCN1CCN(c2cccc(F)c2)CC1)c1ccc2c(c1)OCCO2 [Compound 51] | 5.9 | 14.5 | 49.9 | – |
| COc1ccccc1N1CCN(CCC(O)c2ccc3c(c2)OCCO3)CC1 (centres unmarked) [Compound 17] | 8.1 | 20.5 | 53.1 | – |
| COc1ccccc1N1CCN(CCCCC(=O)c2ccc3c(c2)OCC(C)(C)CO3)CC1 [Compound 79, 7-[5-[4-(2-methoxyphenyl)-1-piperazinyl]valeryl]-3,3-dimethyl-1,5-benzodioxepine] | 8 | 15.8 | 32.5 | – |
| O=C(CCCCN1CCN(c2ccccc2)CC1)c1ccc2c(c1)OCO2 [Compound 64, 5-[5-(4-phenyl-1-piperazinyl]valeryl]-1,3-benzodioxole] | 10.1 | 21.3 | 54.5 | 45.7 |
| OC(CCCCN1CCN(c2ccccn2)CC1)c1ccc2c(c1)OCCCO2 (centres unmarked) [Compound 36] | 10.1 | 19.4 | 31 | – |
| COc1ccccc1N1CCN(CCCC(O)c2ccc3c(c2)OCCO3)CC1 (centres unmarked) [Compound 33, 6-[4-[4-(2-methoxyphenyl)-1-piperazinyl]-1-hydroxybutyl]-1,4-benzodioxane] | 22.6 | 41.8 | 43.2 | – |
| OC(CCN1CCN(c2ccccc2Cl)CC1)c1ccc2c(c1)OCCO2 (centres unmarked) [Compound 16] | 7.9 | 11.9 | 29.8 | – |
